Measured values reported in patent US9725482B2, “Pentacyclic triterpenoid compound with modified structure and preparation method and use thereof” (Suzhou Botany Biomedicals Co., Ltd, priority 2013, dated 2017).

Tests used:
5-LOX = target: T1, 5-LOX (Homo sapiens, UniProt P09917); details: Sailer et al., British J Pharmacology, 1996; cited from earlier work
T1 sequence (P09917 1-674): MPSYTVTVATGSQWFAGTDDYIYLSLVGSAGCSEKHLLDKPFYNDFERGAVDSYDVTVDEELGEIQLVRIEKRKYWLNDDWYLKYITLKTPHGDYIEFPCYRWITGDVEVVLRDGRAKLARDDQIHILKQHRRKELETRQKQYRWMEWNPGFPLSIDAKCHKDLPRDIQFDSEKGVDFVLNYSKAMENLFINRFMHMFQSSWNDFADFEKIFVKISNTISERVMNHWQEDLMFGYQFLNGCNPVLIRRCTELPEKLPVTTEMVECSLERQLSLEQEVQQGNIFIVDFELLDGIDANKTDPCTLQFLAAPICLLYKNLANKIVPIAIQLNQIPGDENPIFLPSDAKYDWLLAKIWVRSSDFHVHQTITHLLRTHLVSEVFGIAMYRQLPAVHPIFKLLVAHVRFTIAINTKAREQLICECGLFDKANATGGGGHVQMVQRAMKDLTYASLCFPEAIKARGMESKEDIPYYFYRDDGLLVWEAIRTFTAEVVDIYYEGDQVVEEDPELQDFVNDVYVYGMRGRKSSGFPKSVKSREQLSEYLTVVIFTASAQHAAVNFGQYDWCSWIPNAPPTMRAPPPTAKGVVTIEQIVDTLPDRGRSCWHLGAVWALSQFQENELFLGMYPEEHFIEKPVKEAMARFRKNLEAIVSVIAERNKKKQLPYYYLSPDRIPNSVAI

mouse psoriasis model [1] = assay: Treatment of mice psoriasis induced by imiquimod with gel formulation; assay type: in vivo, Balb/c mice; details: 0.5% (w/w) gel, day 8 to day 14, topical
Method: (§1) Thirty age- and sex-matched Balb/c mice, 10 in the control group using a blank gel, 10 in the treatment group using AKBA gel and 10 in the treatment group using CKBA gel, were coated on their backs by imiquimod (62.5 mg/day for each mouse) for 7 days to establish mouse psoriasis model. At day 8 to day 14, the blank gel (Control), AKBA gel (0.5% (w/w)) and CKBA gel (0.5% (w/w)) were administered to the mice for treatment, respectively. Imiquimod was administered every two days to the back of the mice to maintain the skin inflammation. At day 15 pictures were took for the skin lesions of the psoriasis mice. Then the mice were sacrificed by cervical vertebra luxation and the skin from the skin lesion was cut and fixed by 4% paraformaldehyde to prepare HE pathological sections.
as §1, with “(0.2%” for “(0.5%”

HaCat keratinocytes = assay: In vitro inhibition of growth of skin keratinocyte (CCK-8); assay type: cell-based; details: 24 hours; for concentration that completely inhibits the growth of the skin keratinocyte: HaCat cells, CCK-8
Method: HaCat keratinocytes (purchased from ATCC) in a logarithmic growth phase were inoculated in a 96-well plate, with 2×10^4 cells for each well. The compound of formula (II) and AKBA were added respectively in a concentration gradient. The total volume was […]. DMSO was added in the control group to a final concentration of 0.25%. […] culture medium was added into the blank control well. Each group had three parallel experiments. After cultured in a cell incubator for 24 hours, […] CCK-8 solution was added into each well. Then the plate was placed in the incubator for incubation at 37° C. and 5% CO2 for 4 hours. OD value was measured at 450 nm by a microplate reader. The inhibition rate was calculated by the following equation: Inhibition Rate=[1−(OD of the test group/OD of the control group)]×100%.

Treg = assay: In vitro differentiation of Treg from naive T cells (flow cytometry); assay type: cell-based, C57BL/6J mice; details: 2 μm, 4 days, FoxP3 staining
Method: (§2) C57BL/6J mice of 6-8 week old were sacrificed by cervical vertebra luxation. The spleen was taken and ground. The cells were sieved to prepare a single-cell suspension. After dyeing on their surfaces by CD4-APC, CD25 PerCP-Cy 5.5 and CD62L-FITC, the cells were sorted by BD FACSAria III flow cytometry. The naïve T cells, i.e., CD4^+CD25^−CD62L^hi+ T cells, were used for induced differentiation of TH1, TH17 and Treg. A gradient of concentration of CKBA was added for incubation. Cells were collected after 4 days and then further cultured in incubator at 37° C. and 5% CO2 for 4-6 hours in 1640 complete culture medium supplemented with 750 ng/ml ionomycin and 50 ng/ml phorbol myristate acetate (PMA) and GolgiPlug. After suspension with PBS, the surface of the cell was stained by CD4-APC. After staining at 4° C. for 30 minutes, the cells were re-suspended once and then broke for 20 minutes at 4[…]. The cells were washed again by lotion and then stained by IFN-γ, IL-17A and FoxP3.

mouse psoriasis model [2] = assay: Treatment of mice psoriasis induced by imiquimod with gel formulation; assay type: in vivo, Balb/c mice; details: 0.2% (w/w) gel, day 8 to day 14, topical
TH1 cells = assay: Inhibition of in vitro differentiation of TH1 cells from naive T cells (flow cytometry); assay type: cell-based, C57BL/6J mice; details: 2 μm, 4 days, IFN-γ staining
Method: as §2

TH17 cells = assay: Inhibition of in vitro differentiation of TH17 cells from naive T cells (flow cytometry); assay type: cell-based, C57BL/6J mice; details: 2 μm, 4 days, IL-17A staining
Method: as §2

Compound	5-LOX inhibitory activity among boswellic acids (5-LOX)	mice psoriasis phenotype (mouse psoriasis model [1])	number of the inflammatory cells in dermis (mouse psoriasis model [1])	skin thickness (mouse psoriasis model [1])	concentration that completely inhibits the growth of the skin keratinocyte (HaCat keratinocytes)	inhibition on differentiation of Treg (Treg)	mice psoriasis (mouse psoriasis model [2])	number of the inflammatory cells in dermis (mouse psoriasis model [2])	skin thickness (mouse psoriasis model [2])	treatment of mice psoriasis as compared to AKBA (mouse psoriasis model [1])	inhibiting division and proliferation of HaCat cells as compared to AKBA (HaCat keratinocytes; concentration gradient)	inhibition of in vitro differentiation of TH1 (TH1 cells)	inhibition of in vitro differentiation of TH17 (TH17 cells)
CC(=O)O[C@@H]1CC[C@@]2(C)C(CC[C@]3(C)C2C(=O)C=C2C4[C@@H](C)[C@H](C)CC[C@]4(C)CC[C@]23C)[C@@]1(C)C(=O)O (stereo partly drawn) [AKBA, Acetyl-11-keto-β-boswellic acid, reference compound]	the most obvious 5-LOX inhibitory activity	effectively relieve	significantly reduce	significantly reduce	100 µM								
C[C@H]1[C@H](C)CC[C@]2(C)CC[C@]3(C)C(=CC(=O)[C@@H]4[C@@]5(C)CC[C@@H](OC(=O)C6CCCCC6)[C@](C)(C(=O)O)[C@@H]5CC[C@]43C)[C@H]12 [CKBA, 3-o-α-cyclohexanoyl-11-keto-β-boswellic acid]		effectively relieve	significantly reduce	significantly reduce	20 µM	no inhibition	effectively cure	significantly reduce	significantly reduce	more effectively treat	more effective	very effectively inhibit	very effectively inhibit
